Laboratory results: BindingDB's records for doi:10.7270/Q2TX3CTT (Broad Institute, 2010)

Biological target: Glycogen synthase kinase-3 beta (Homo sapiens, UniProt P49841)
Assay: concentration-response blocking of human GSK3B – biochemical, luminescence, cell-free homogeneous, retest, dose response (AID 434954)

Glycogen synthase kinase-3 beta, sequence (P49841 whole entry): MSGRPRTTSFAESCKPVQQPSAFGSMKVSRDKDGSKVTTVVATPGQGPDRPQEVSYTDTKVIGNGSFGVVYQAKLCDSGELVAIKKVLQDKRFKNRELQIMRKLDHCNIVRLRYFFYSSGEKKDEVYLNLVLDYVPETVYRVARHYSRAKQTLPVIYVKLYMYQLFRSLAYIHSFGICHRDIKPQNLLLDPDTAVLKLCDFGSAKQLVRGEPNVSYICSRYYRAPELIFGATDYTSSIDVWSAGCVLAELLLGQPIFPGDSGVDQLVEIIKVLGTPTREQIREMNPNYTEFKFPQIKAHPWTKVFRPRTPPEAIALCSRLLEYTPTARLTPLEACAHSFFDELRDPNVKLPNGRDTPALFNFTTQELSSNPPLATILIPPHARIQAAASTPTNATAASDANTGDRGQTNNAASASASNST

| Structure (SMILES) | EC50 [µM] |
| --- | --- |
| CCCn1cc(SCC(=O)NCc2ccco2)c2ccccc21 [MLS000095681] | > 300 |
| Cc1ccc(-c2cc(C(=O)NCCc3ccccn3)c3ccccc3n2)c(C)c1 [SMR000264677] | > 300 |
| CC1=Nc2ncnn2C(c2c[nH]c3ccccc23)C1C(=O)OC(C)C (stereo not given) | 1.81 |
| CC(=O)c1coc2ccc(OCC(=O)O)cc12 [2-[(3-acetyl-5-benzofuranyl)oxy]acetic acid] | 56.6 |
| O=C(O)Cc1sc(N[N-][CH+]c2ccc(-c3ccc(Cl)c([N+](=O)[O-])c3)o2)nc1O [MLS000689975] | > 300 |
| CS(=O)(=O)Nc1cccc(-c2cn3c(n2)SCC3)c1 [MLS001167062] | > 300 |
| Nc1nc(NCCOCCO)nc(NC2CCCCC2)c1[N+](=O)[O-] [SMR000540405] | 3.01 |
| O=C1Nc2ccccc2C1=NN1CCOCC1 [3-(morpholin-4-ylamino)indol-2-one] | > 300 |
| CNc1nc(N)c([N+](=O)[O-])c(Nc2cccc(Cl)c2)n1 [SMR000434546] | 11.7 |
| Cc1ccc(N2CCN(C(=O)N3CCOCC3)CC2)c(C)c1 [[4-(2,4-dimethylphenyl)piperazin-1-yl]-morpholin-4-ylmethanone] | > 300 |
| CC1CCCC(NC(=O)C2CCN(C(=O)Nc3ccccc3)CC2)C1C (stereo not given) [N4-(2,3-dimethylcyclohexyl)-N1-phenyl-piperidine-1,4-dicarboxamide] | > 300 |
| COc1cc2c(O)c3c(c(-c4ccc5c(c4)OCO5)c2cc1OC)C(=O)OC3 [9-(1,3-benzodioxol-5-yl)-4-hydroxy-6,7-dimethoxy-3H-benzo[f][2]benzofuran-1-one] | 4.42 |
| O=C(CSc1nnc(COc2ccc(Cl)cc2)o1)N1c2ccccc2CCc2ccccc21 [2-[5-(4-Chloro-phenoxymethyl)-[1,3,4]oxadiazol-2-ylsulfanyl]-1-(10,11-dihydro-dibenzo[b,f]azepin-5-yl)-ethanone] | > 300 |
| CC1CCc2c(sc3nn[nH]c(=O)c23)C1 (stereo not given) [SMR000124179] | 39 |
| COc1ccc(-c2nn(-c3ccccc3)cc2C=NN=C(N)N)cc1OC [SMR000261891] | > 300 |
| COc1ccc(-c2nn(CCC(=O)O)cc2C=NNC(N)=S)cc1 [3-[4-[(carbamothioylhydrazinylidene)methyl]-3-(4-methoxyphenyl)-1-pyrazolyl]propanoic acid] | > 300 |
| CCOC(=O)c1ccc(/N=c2\sc(C(=O)OC)cc(=O)n2Cc2ccco2)cc1 [methyl 2-(4-ethoxycarbonylphenyl)imino-3-(furan-2-ylmethyl)-4-oxidanylidene-1,3-thiazine-6-carboxylate] | > 300 |
| O=C(CSc1nnc(-c2ccco2)n1Cc1ccco1)N1CCOCC1 [2-(5-Furan-2-yl-4-furan-2-ylmethyl-4H-[1,2,4]triazol-3-ylsulfanyl)-1-morpholin-4-yl-ethanone] | > 300 |
| O=C(O)Cn1c(=O)c2c3c(sc2n(Cc2ccccc2F)c1=O)CCCC3 [SMR000544593] | > 300 |
| CCCCc1cc(=O)oc2cc(OCC(=O)N(CC)CC)ccc12 | > 300 |
| Cc1cccc(C(=O)NC2CC3CCCC(C2)N3Cc2ccccc2)c1 (stereo not given) [MLS001212730] | > 300 |
| O=C1CN=C(c2ccccc2)c2c(sc3c2CCCC3)N1 | 27.8 |
| O=C1CC(O)(C(F)(F)F)Oc2c1ccc1ccccc21 (stereo not given) [2-oxidanyl-2-(trifluoromethyl)-3H-benzo[h]chromen-4-one] | > 300 |
| COc1cccc(C(=O)CC(C#N)c2ccc(F)cc2)c1 (stereo not given) [MLS001165246] | > 300 |

| Structure (SMILES) | EC50 [µM] |
| --- | --- |
| CC(C)(C)Sc1ccc(CN=O)cc1[N+](=O)[O-] [SMR000335018] | 23.6 |
| O=[N+]([O-])c1ccc(N2CCCCCC2)c([N+](=O)[O-])c1 [1-(2,4-Dinitro-phenyl)-azepane] | > 300 |
| CCC1(C)NC(=O)N(CC(=O)Nc2sc3c(c2C(N)=O)CCC3)C1=O (stereo not given) [2-[2-[4-ethyl-4-methyl-2,5-bis(oxidanylidene)imidazolidin-1-yl]ethanoylamino]-5,6-dihydro-4H-cyclopenta[b]thiophene-3-carboxamide] | 30.3 |
| O=C(O)CCn1cc(C=C2C(=O)NC(=S)NC2=O)c(-c2ccccc2)n1 [MLS000707577] | > 300 |
| Cc1cc(N2CCN(C(=O)c3ccco3)CC2)c2ccccc2n1 [SMR000460267] | > 300 |
| O=C(OCCCOC(=O)c1ccccc1O)c1ccccc1O [2-hydroxybenzoic acid 3-[(2-hydroxyphenyl)-oxomethoxy]propyl ester] | > 300 |
| NS(=O)(=O)c1ccc(N=Nc2cnc(O)c(O)c2)cc1 [4-[(5,6-dioxo-3-pyridinyl)hydrazo]benzenesulfonamide] | > 300 |
| CCCCn1nc(NC(=O)c2cccs2)c2cc3ccccc3nc21 [MLS000081455] | > 300 |
| Cn1c(SCc2cccc(Br)c2)nnc1-c1ccncc1 [4-[5-(3-Bromo-benzylsulfanyl)-4-methyl-4H-[1,2,4]triazol-3-yl]-pyridine] | > 300 |
| O=C(O)c1ccccc1C(=O)Nc1nccs1 [2-(1,3-thiazol-2-ylcarbamoyl)benzoic acid] | > 300 |
| COc1ccc(-c2nn(-c3ccccc3)cc2C#N)cc1 [3-(4-methoxyphenyl)-1-phenyl-4-pyrazolecarbonitrile] | > 300 |
| COC(=O)C(CC(C)C)NC(=O)CSc1nc(-c2ccccc2)c(C#N)c(=O)[nH]1 (stereo not given) | > 300 |
| c1ccc(Nc2ncnc3[nH]ncc23)cc1 | 45.5 |
| O=C(Nc1cccc2c1C(=O)NC2=O)c1ccc(-n2c(O)ccc2O)cc1 [N-[1,3-bis(oxidanylidene)isoindol-4-yl]-4-[2,5-bis(oxidanylidene)pyrrolidin-1-yl]benzamide] | 77.1 |
| Cc1cc2oc(=O)cc(Cn3ccnc3)c2cc1O [6-hydroxy-4-(imidazol-1-ylmethyl)-7-methylchromen-2-one] | > 300 |
| COc1ccc2nc(NC(=O)CSc3nc4cccnc4n3C)sc2c1 [MLS000072990] | 113 |
| CCOC(=O)CCCSc1nnc(CCCCCN2C(=O)c3cccc4cccc(c34)C2=O)o1 [SMR000235858] | > 300 |
| CCn1c(SCC(=O)Nc2ccc(Cl)cc2)nnc1C1CC1 [MLS000115911] | > 300 |
| CCOc1cc(C2c3c(n[nH]c3C)N=C3CC(C)(C)CC(=O)C32)ccc1O (stereo not given) [MLS000736418] | 3.32 |
| CCSc1nnc(NC(=O)CSc2nnc(CNC(=O)c3cc(OC)c(OC)c(OC)c3)o2)s1 [N-[[5-[2-[(5-ethylsulfanyl-1,3,4-thiadiazol-2-yl)amino]-2-oxoethyl]sulfanyl-1,3,4-oxadiazol-2-yl]methyl]-3,4,5-trimethoxybenzamide] | > 300 |
| COc1ccccc1CNC(=O)OCc1nccnc1C(=O)Nc1ccc(Br)cn1 [[3-[(5-bromopyridin-2-yl)carbamoyl]pyrazin-2-yl]methyl N-[(2-methoxyphenyl)methyl]carbamate] | > 300 |
| O=C(NCCCn1ccnc1)c1ccco1 | > 300 |
| COc1ccc2nc3c(cc2c1)c(NC(=O)C1CCCO1)nn3CC(C)C (stereo not given) [N-[6-methoxy-1-(2-methylpropyl)-3-pyrazolo[3,4-b]quinolinyl]-2-oxolanecarboxamide] | 0.946 |
| CC(=O)c1ccc(Cc2cnc(N)s2)cc1 [1-{4-[(2-amino-1,3-thiazol-5-yl)methyl]phenyl}ethanone] | > 300 |

| Structure (SMILES) | EC50 [µM] |
| --- | --- |
| O=C(Nc1ccccc1)Nc1ccncc1 | > 300 |
| CON=C(CNC(=O)c1ccc(Cl)cc1Cl)c1ccc(Cl)cc1 [SMR000179199] | > 300 |
| CN1CCc2c(sc(NC(=O)Cc3ccccc3)c2C(N)=O)C1 [MLS000879155] | > 300 |
| CN(Cc1ccccc1)Cc1nc2c([nH]1)c(=O)n(C)c(=O)n2C [1,3-dimethyl-8-[[methyl-(phenylmethyl)amino]methyl]-7H-purine-2,6-dione] | > 300 |
| CCn1c(=O)c(C(=O)NNC(=O)c2ccccc2)c(O)c2ccccc21 | > 300 |
| COc1ccc(CC(=O)Nc2nc(-c3ccccc3)c(C(C)=O)s2)cc1OC [2-(3,4-dimethoxyphenyl)-N-(5-ethanoyl-4-phenyl-1,3-thiazol-2-yl)ethanamide] | 7.48 |
| COCCOC(=O)c1c(C)oc2ccc(OC(=O)c3cccs3)cc12 [MLS000111716] | > 300 |
| Cc1cccc(Nc2nc(NCC3CCCO3)nc(N)c2[N+](=O)[O-])c1 (stereo not given) [5-Nitro-N-(tetrahydro-furan-2-ylmethyl)-N'-m-tolyl-pyrimidine-2,4,6-triamine] | 4.11 |
| Cn1c(=O)[nH]c(=O)c2c1nc1n2CCCS1 | > 300 |
| CCn1c(/C=C/N(C)c2ccccc2)[n+](CC)c2cc(Cl)ccc21 [SMR000173749] | > 300 |
| Cc1ccc2c(c1)=C(NN1C(=O)c3ccccc3C1=O)C(=O)N=2 [MLS000573597] | > 300 |
| CCCN(CCC)Cc1c(C(=O)NN=Cc2ccco2)nnn1-c1nonc1N | > 300 |
| Nc1ncnc(N2CCc3ccccc32)c1[N+](=O)[O-] [SMR000323059] | 14 |
| O=C(C1CCCO1)N1N=C(c2ccc(Br)cc2)CC1c1ccco1 (stereo not given) [MLS000699386] | > 300 |
| Cc1ccccc1C1=NC(C(F)(F)F)(C(F)(F)F)c2c(n(C)c(=O)n(C)c2=O)N1 [1,3-dimethyl-7-(2-methylphenyl)-5,5-bis(trifluoromethyl)-8H-pyrimido[4,5-d]pyrimidine-2,4-dione] | > 300 |
| Cc1cnc(NC(=O)c2sc(Nc3ccccc3)nc2N)o1 [MLS000762724] | 9.59 |
| CC(=O)Nc1ccc(S(=O)(=O)N(Cc2cccnc2)Cc2cc3ccccc3nc2O)cc1 [N-[4-[(2-oxidanylidene-1H-quinolin-3-yl)methyl-(pyridin-3-ylmethyl)sulfamoyl]phenyl]ethanamide] | > 300 |
| Cc1csc(NC(=O)CN2C(=O)c3ccccc3C2=O)c1C(N)=O [2-[[2-(1,3-dioxo-2-isoindolyl)-1-oxoethyl]amino]-4-methyl-3-thiophenecarboxamide] | > 300 |
| CC(C)CCNc1nc(N)c([N+](=O)[O-])c(NCCO)n1 [2-[[6-amino-2-(3-methylbutylamino)-5-nitropyrimidin-4-yl]amino]ethanol] | 6.82 |
| O=C(C(Cc1ccccc1)n1cccc1)N1CCN(c2cccc(Cl)c2)CC1 (stereo not given) [SMR000127921] | > 300 |
| Cc1ccc(Cc2cnc(NC(=O)C3CCCO3)s2)cc1 (stereo not given) [SMR000141246] | 17.4 |
| Cc1[nH][nH]c(=O)c1N=Nc1ccccc1C#N [2-[2-(3-methyl-5-oxopyrazol-4-yl)hydrazinyl]benzonitrile] | 15.9 |
